The target of assay [1] is T1, Phosphatidylinositol 4,5-bisphosphate 3-kinase catalytic subunit alpha isoform (Homo sapiens, UniProt P42336). Nature of the assay: Inhibition of PI3Kalpha (unknown origin) assessed as inhibition rate using PIP2 as substrate at 10 uM measured after 1 hr by ADP-glo plus luminescence assay. In general terms: ADP-Glo first removes unused ATP, then detects ADP through luciferase.

Assay [2] deals with T1, Phosphatidylinositol 4,5-bisphosphate 3-kinase catalytic subunit alpha isoform. Nature of the assay: Inhibition of PI3Kalpha (unknown origin) using PIP2 as substrate measured after 1 hr by ADP-glo plus luminescence assay.
Assay [3] deals with Phosphatidylinositol 4,5-bisphosphate 3-kinase catalytic subunit gamma isoform (Homo sapiens, UniProt P48736). As to the kind of experiment: Inhibition of PI3Kgamma (unknown origin) using PIP2 as substrate measured after 1 hr by ADP-glo plus luminescence assay.
In assay [4] the target is T2, Phosphatidylinositol 4,5-bisphosphate 3-kinase catalytic subunit delta isoform (Homo sapiens, UniProt O00329).
T2 sequence (O00329 whole entry): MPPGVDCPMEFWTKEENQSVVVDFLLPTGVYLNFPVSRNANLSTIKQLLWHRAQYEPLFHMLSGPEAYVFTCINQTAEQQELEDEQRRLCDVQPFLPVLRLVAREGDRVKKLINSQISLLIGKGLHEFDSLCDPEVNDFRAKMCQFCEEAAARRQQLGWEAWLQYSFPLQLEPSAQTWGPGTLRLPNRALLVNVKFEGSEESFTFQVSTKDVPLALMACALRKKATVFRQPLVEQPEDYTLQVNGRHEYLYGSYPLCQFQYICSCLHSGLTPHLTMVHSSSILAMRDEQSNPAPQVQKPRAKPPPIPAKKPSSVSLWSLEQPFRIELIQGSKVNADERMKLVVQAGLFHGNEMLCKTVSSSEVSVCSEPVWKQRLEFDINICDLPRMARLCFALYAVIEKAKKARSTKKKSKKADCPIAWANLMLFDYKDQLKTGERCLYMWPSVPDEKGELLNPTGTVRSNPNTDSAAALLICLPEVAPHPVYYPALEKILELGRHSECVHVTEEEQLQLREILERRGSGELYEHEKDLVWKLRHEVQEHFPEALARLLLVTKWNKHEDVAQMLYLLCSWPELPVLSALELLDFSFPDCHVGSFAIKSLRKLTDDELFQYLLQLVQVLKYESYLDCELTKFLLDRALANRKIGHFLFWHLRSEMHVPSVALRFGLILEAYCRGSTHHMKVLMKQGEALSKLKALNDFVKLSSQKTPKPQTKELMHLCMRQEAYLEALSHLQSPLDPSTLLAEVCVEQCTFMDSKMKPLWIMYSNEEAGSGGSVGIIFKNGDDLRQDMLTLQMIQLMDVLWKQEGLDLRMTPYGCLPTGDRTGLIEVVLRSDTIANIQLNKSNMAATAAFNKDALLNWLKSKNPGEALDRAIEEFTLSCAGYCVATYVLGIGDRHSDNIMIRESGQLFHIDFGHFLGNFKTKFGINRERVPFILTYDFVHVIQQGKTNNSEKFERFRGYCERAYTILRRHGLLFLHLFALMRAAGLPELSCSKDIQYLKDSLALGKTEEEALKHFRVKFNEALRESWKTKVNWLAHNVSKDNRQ
Nature of the assay: Inhibition of PI3Kdelta (unknown origin) using PIP2 as substrate measured after 1 hr by ADP-glo plus luminescence assay.

Assay [5] concerns the target Phosphatidylinositol 4,5-bisphosphate 3-kinase catalytic subunit beta isoform (Homo sapiens, UniProt P42338). Nature of the assay: Inhibition of PI3Kbeta (unknown origin) using PIP2 as substrate measured after 1 hr by ADP-glo plus luminescence assay.
The species entered for assay [6] is Homo sapiens. Nature of the assay: Selectivity ratio of IC50 for PI3Kgamma (unknown origin) to IC50 for PI3Kalpha (unknown origin).

SMILES strings stand for the structures.

As a reminder, the inhibition is how much of the control response was suppressed. For orientation: IC50 means the concentration at which inhibition is half-maximal.

T1 sequence (P42336 whole entry, canonical isoform): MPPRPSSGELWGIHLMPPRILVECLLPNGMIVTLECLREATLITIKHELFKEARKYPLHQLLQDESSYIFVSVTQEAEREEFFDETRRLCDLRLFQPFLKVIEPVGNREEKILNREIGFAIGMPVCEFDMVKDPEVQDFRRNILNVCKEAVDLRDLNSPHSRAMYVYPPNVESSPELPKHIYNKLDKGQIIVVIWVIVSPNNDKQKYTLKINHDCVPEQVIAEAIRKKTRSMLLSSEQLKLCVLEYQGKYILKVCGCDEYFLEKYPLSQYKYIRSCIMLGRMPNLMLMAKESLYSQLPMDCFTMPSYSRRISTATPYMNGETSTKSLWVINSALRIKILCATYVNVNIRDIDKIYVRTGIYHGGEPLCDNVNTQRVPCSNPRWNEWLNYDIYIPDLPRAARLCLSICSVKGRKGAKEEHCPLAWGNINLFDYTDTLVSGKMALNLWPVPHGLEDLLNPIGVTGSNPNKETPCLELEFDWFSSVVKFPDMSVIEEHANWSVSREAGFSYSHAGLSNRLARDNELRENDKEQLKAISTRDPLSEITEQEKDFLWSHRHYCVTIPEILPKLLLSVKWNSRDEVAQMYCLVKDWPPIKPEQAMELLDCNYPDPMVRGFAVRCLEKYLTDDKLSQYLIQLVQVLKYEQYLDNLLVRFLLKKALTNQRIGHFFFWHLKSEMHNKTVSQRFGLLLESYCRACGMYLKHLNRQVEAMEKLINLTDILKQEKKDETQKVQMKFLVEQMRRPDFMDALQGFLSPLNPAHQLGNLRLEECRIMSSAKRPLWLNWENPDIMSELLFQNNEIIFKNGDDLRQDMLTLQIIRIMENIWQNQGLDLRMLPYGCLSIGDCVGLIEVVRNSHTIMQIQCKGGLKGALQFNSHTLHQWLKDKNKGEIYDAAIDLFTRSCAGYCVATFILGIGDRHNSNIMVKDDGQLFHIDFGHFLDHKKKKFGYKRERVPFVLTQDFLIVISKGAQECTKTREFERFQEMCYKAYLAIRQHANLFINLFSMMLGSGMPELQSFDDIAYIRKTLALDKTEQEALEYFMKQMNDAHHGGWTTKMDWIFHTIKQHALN
Sequence of Phosphatidylinositol 4,5-bisphosphate 3-kinase catalytic subunit gamma isoform (P48736 whole entry, canonical isoform): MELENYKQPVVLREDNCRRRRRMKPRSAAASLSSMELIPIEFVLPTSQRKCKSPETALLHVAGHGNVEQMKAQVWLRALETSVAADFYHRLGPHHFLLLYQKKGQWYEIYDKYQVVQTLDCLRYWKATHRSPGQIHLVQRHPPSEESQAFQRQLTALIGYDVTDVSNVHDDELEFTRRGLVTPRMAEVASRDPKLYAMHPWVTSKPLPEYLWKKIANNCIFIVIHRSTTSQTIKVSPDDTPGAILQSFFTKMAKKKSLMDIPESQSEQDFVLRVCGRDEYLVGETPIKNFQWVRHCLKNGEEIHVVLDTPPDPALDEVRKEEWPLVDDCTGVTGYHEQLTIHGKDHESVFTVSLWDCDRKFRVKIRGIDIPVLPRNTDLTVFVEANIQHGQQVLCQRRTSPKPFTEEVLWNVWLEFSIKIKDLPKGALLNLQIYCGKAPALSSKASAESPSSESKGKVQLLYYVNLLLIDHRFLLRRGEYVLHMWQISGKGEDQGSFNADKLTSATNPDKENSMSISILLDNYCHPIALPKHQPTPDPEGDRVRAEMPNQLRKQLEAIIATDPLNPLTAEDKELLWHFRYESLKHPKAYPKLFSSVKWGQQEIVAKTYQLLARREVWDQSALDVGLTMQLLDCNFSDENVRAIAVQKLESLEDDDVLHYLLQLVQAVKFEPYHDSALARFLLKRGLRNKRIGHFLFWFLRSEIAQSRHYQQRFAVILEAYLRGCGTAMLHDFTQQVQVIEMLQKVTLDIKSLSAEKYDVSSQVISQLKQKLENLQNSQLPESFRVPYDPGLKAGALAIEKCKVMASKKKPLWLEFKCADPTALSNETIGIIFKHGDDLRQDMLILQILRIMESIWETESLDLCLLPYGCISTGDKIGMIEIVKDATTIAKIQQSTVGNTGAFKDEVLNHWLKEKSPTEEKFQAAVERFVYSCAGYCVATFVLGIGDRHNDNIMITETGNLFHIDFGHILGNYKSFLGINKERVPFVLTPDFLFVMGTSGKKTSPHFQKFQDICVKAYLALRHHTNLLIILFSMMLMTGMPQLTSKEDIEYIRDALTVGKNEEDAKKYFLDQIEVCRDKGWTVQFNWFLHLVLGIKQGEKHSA
Sequence of Phosphatidylinositol 4,5-bisphosphate 3-kinase catalytic subunit beta isoform (P42338 whole entry, canonical isoform): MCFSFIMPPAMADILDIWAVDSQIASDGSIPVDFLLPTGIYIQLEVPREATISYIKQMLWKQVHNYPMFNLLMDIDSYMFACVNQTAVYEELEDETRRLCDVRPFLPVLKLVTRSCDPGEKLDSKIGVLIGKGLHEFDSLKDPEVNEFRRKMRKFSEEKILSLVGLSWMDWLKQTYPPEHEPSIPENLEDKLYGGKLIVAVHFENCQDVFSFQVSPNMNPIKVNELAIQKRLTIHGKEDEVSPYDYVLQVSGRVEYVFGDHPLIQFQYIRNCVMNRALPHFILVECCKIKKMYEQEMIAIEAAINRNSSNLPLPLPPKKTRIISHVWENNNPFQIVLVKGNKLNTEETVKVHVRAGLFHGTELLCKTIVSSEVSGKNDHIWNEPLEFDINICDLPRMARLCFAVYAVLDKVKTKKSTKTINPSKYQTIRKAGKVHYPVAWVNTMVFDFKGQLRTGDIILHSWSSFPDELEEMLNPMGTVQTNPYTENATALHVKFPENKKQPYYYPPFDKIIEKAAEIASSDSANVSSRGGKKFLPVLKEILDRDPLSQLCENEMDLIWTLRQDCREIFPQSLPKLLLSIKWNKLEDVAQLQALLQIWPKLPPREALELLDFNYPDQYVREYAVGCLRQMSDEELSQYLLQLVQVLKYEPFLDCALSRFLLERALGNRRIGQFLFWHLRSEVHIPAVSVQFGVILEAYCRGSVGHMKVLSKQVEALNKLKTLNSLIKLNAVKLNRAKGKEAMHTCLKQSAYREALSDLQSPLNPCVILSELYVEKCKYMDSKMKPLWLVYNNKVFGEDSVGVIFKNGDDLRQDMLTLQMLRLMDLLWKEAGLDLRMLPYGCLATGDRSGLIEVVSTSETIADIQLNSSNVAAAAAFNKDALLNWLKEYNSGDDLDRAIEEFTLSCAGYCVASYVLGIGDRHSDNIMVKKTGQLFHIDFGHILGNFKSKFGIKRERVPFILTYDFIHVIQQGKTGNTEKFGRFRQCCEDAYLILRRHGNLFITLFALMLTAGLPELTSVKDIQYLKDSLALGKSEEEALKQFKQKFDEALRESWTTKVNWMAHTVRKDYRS

As for `CC(C)NC(=O)CSc1nc(-c2ccc3c(c2)OCO3)nc2cc(=O)[nH]n12`, the inhibition in assay [1] came out at 71.9%. Also, the IC50 in assay [2] was 17 µM. In the case of `O=C(Cc1nnc(-c2ccccn2)o1)NCc1ccc(F)cc1Cl`, the half-inhibitory concentration (IC50) in assay [2] is greater than 200 µM.

As to `O=C(Cc1nnc(-c2ccc3c(c2)OCO3)o1)NCc1ccc(F)cc1`, the IC50 in assay [2] is greater than 200 µM.

In the case of `O=C(Cc1nnc(-c2ccc3ncccc3c2)o1)NCCc1ccc(Cl)cc1`, the 50% inhibitory concentration (IC50) in assay [3] is 9.8 µM; in assay [4] it was 16.6 µM; in assay [5], 2.6 µM; in assay [2] it was 6.6 µM. Take `O=C(Cc1nnc(-c2ccc3ncccc3c2)o1)N1CCN(c2ccccc2)CC1`: in assay [2], the concentration for half-maximal inhibition (IC50) was greater than 200 µM.

Consider `COc1ccc(NC(=O)Cc2nnc(-c3ccc4ncccc4c3)o2)cc1OC`, for which the half-inhibitory concentration (IC50) in assay [2] is greater than 200 µM. Turning to `O=C(Cc1nnc(-c2ccc3ncccc3c2)o1)NCc1ccc(F)cc1Cl`, the inhibition in assay [1] was 55.5%. Further, the concentration for half-maximal inhibition (IC50) in assay [2] amounted to 15.6 µM. Consider `N#Cc1cc(NC(=O)Cc2nnc(-c3ccc4ncccc4c3)o2)ccc1F`, for which the IC50 in assay [2] is greater than 200 µM. Regarding `O=C(Cc1nnc(-c2ccc3ncccc3c2)o1)Nc1ccc(OC(F)(F)F)cc1`, the 50% inhibitory concentration (IC50) in assay [2] was greater than 200 µM. With `O=C(Cc1nnc(-c2ccc3ncccc3c2)o1)NCCc1ccccc1`, in assay [1], the inhibition came to 73.8%. The concentration for half-maximal inhibition (IC50) in assay [2] came out at 29.2 µM. With `O=C(Cc1nnc(-c2ccc3ncccc3c2)o1)Nc1cccc(C(F)(F)F)c1`, the IC50 in assay [2] was greater than 200 µM. Consider `COc1ccccc1CNC(=O)Cc1nnc(-c2ccc3ncccc3c2)o1`, for which the IC50 in assay [2] is 18.3 µM. Consider `COc1ccc(CNC(=O)Cc2nnc(-c3ccc4ncccc4c3)o2)cc1OC`, for which the IC50 in assay [3] stood at 152 µM; in assay [4] it was 14.2 µM; in assay [5], 4.1 µM; in assay [2] it was 7.6 µM. Moreover, the Ratio IC50 in assay [6] was determined as 20.

The values are drawn from ChEMBL document CHEMBL4715864, “Discovery of 2-(5-(quinolin-6-yl)-1,3,4-oxadiazol-2-yl)acetamide derivatives as novel PI3Kα inhibitors via docking-based virtual screening” (Bioorg Med Chem, 2021).
